Earlier results, collected in patent US10596124B2, “Lipid nanoparticle compositions and methods as carriers of cannabinoids in standardized precision-metered dosage forms” (NanoSphere Health Sciences, LLC, priority 2015, dated 2020).

Details: intranasal

SMILES: C=C(C)[C@@H]1CCC(C)=C[C@H]1c1c(O)cc(CCCCC)cc1O [CBD, cannabidiol]
- time to absorption into the systemic circulation: ≤ 10 min
